The values that follow come from US8507539B2, “Potassium channel blockers and uses thereof” (Bionomics Limited, priority 2008, dated 2013).

What all share (type): cell-based
For test [1], the target named is T1, hKv1.1 (Homo sapiens, UniProt Q09470).
T1 construct: expressed in transfected cells
As to the kind of experiment: Whole-cell patch-clamp inhibition of Kv1.1 currents in CHO cells stably transfected with hKv1.1. The conditions noted are these: from IC50 values, CHO-hKv1.1 vs CHO-hKv1.3. On the procedure: (§1) The effectiveness of the generated compounds in blocking the Kv1.3 current was assayed on CHO cells stably expressing hKv1.3. Cells were grown in F12 Kaighns' medium supplemented with 10% fetal calf serum, 2 mM L-glutamine, 1 mM Na^+ pyruvate, 100 units/ml penicillin, 100 Fg/ml streptomycin and 500 μg/ml G418 (to keep them under selection pressure). Kv1.3 currents were measured using the whole-cell configuration of the patch-clamp technique and were evoked by 500 ms depolarising voltage pulses to +40 mV from a holding potential of −80 mV at 30 sec intervals. Cells were continuously bathed in Ringers solution containing (mM): 160 NaCl, 4.5 KCl, 2.5 CaCl2, 1 MgCl2, 10 HEPES, pH 7.4, 290-310 mOsm. The internal (pipette) solution contained (mM): 134 KF, 2 MgCl2, 10 HEPES, 10 EGTA (pH 7.2, 290-310 mOsm). Series resistance compensation (60-80%) was applied when the peak current amplitude exceeded 2 nA. Compounds initially dissolved in DMSO were diluted in bath solution (final DMSO concentration 0.5%) and applied directly to the recording chamber at increasing concentrations allowing ample time for steady state block to be achieved between each concentration. Each compound was tested at 4-5 different concentrations in triplicate. IC50 values were determined by fitting the average normalised reduction of the current integral to the Hill equation.
(§2) IC50 values for inhibition of Kv1.3 currents were determined as described above. IC50 values for inhibition of Kv1.1 and Kv1.5 currents were determined by the method above using Chinese Hamster Ovary (CHO) cells stably transfected with hKv1.1 and hKv1.5.

In test [2] the target is T2, hKv1.5 (Homo sapiens, UniProt P22460).
T2 construct: expressed in transfected cells
As to the kind of experiment: Whole-cell patch-clamp inhibition of Kv1.5 currents in CHO cells stably transfected with hKv1.5. The conditions noted are these: from IC50 values, CHO-hKv1.5 vs CHO-hKv1.3. On the procedure: as §1, §2
In general terms: Patch clamp records ionic current or voltage across a cell membrane.

Test [3] addresses hKv1.3 (Homo sapiens, UniProt P22001). As to the kind of experiment: Whole-cell patch-clamp block of Kv1.3 current in CHO cells stably expressing hKv1.3. How it is done:
as §1

The mark [4] stands for this setting: CHO cells stably expressing hKv1.3, whole-cell patch clamp, reported as ranges, read-out: IC50 (Kv1.3).
Setting [5] is: IC50 for inhibition of Kv1.3 currents, CHO-hKv1.3, read-out: Potency for Kv1.3.

Read-outs that look alike come from different tables or passages of the source.

Sequence of hKv1.3 (P22001 whole entry): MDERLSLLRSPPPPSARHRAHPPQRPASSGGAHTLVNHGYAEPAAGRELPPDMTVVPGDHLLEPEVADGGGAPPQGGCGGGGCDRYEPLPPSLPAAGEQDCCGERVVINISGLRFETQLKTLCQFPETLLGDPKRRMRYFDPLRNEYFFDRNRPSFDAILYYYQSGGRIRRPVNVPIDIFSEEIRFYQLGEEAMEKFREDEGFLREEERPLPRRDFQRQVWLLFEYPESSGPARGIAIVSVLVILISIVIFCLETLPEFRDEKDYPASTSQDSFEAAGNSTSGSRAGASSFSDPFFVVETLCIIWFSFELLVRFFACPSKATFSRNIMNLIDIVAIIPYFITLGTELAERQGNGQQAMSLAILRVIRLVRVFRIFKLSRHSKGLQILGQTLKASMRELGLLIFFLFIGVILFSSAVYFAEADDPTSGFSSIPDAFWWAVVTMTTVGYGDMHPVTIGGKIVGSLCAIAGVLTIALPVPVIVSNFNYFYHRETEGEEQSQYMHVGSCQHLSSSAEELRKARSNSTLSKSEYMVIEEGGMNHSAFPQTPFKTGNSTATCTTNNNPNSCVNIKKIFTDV
T2 sequence (P22460 whole entry): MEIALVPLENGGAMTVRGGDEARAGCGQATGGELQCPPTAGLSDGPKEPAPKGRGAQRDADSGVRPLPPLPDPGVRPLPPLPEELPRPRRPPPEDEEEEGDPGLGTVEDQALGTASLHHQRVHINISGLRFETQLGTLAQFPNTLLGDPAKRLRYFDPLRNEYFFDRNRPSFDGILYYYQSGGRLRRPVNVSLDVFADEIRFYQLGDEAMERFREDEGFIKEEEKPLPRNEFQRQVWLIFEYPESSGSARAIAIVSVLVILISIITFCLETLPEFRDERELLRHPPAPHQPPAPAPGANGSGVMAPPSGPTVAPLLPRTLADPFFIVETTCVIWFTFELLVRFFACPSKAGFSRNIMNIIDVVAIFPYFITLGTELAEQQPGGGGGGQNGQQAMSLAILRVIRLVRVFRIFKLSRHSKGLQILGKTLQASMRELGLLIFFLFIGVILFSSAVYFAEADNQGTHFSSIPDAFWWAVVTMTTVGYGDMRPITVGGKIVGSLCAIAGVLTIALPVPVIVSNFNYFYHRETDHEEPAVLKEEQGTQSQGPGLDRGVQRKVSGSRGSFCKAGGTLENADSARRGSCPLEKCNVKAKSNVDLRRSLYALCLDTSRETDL
T1 sequence (Q09470 whole entry): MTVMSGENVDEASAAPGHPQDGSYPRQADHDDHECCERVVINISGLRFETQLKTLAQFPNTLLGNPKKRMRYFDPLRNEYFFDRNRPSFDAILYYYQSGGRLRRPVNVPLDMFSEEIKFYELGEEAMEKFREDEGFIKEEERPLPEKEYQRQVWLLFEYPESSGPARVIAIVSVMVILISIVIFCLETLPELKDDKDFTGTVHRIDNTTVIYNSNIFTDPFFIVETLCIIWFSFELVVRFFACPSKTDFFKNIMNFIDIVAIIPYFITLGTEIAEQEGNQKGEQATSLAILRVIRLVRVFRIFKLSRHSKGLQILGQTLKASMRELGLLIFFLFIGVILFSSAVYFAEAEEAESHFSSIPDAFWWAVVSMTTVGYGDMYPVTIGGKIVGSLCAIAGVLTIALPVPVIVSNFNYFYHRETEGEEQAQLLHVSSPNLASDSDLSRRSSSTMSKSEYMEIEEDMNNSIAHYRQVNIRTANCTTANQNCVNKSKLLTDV

On to `CC(=O)c1c(OCCN2CCCC(F)(F)C2)c(OCCC(C)c2ccc(F)cc2)c2oc(C(F)F)nc2c1C` (centres unmarked) [Example 31b, 5-Acetyl-7-[3-(4-fluorophenyl)butoxy]-6-(2-(3,3-difluoropiperidin-1-yl)-ethoxy)-4-methyl-2-difluoromethyl-benzo[d]oxazole], for which the “Selectivity for Kv1.3 over Kv1.1” value in test [1] came to 21 fold. The “Selectivity for Kv1.3 over Kv1.5” value in test [2] is reported as 29 fold. The IC50 in test [3] (setting [4]) and in test [3] (setting [5]) was < 50 nM in each case.
Consider `CC(=O)c1c(OCCN2CCCCC2)c(OCCC(C)c2ccc(F)cc2)c2oc(C)nc2c1C` (centres unmarked) [Example 42, 5-Acetyl-7-[3-(4-fluorophenyl)butoxy]-6-[2-(piperidin-1-yl)-ethoxy]-2,4-dimethyl-benzooxazole], for which the “Selectivity for Kv1.3 over Kv1.1” value in test [1] was 25 fold. Also, the “Selectivity for Kv1.3 over Kv1.5” value in test [2] was 24 fold. Moreover, the IC50 in test [3] (setting [4]) and in test [3] (setting [5]) was < 50 nM each time.
As for `CC(=O)c1c(OCCNC2CCCCC2)c(OCCC(C)c2ccc(F)cc2)c2oc(C)nc2c1C` (centres unmarked) [Example 18, 5-Acetyl-6-(2-cyclohexylamino-ethoxy)-7-[3-(4-fluorophenyl)butoxy]-2,4-dimethyl-benzooxazole], the “Selectivity for Kv1.3 over Kv1.1” value in test [1] came to 11 fold. Also, in test [2], the “Selectivity for Kv1.3 over Kv1.5” value is on record as 12 fold. The IC50 in test [3] (setting [4]) and in test [3] (setting [5]) was < 50 nM in each case.
Regarding `CC(=O)c1c(OCCn2ccnc2)c(OCCC(C)c2ccc(F)cc2)c2ocnc2c1C` (centres unmarked) [Example 5, 5-Acetyl-7-[3-(4-fluorophenyl)butoxy]-4-methyl-6-(2-N-imidazolyl-ethoxy)benzooxazole], the IC50 in test [3] (setting [4]) was < 50 nM.
As to `CC(=O)c1c(OCCN2CC[S+]([O-])CC2)c(OCCC(C)c2ccc(F)cc2)c2oc(C)nc2c1C` (centres unmarked) [Example 14, 5-Acetyl-7-[3-(4-fluorophenyl)butoxy]-2,4-dimethyl-6-[2-(1-oxo-thiomorpholin-4-yl)-ethoxy]-benzooxazole], in test [3] (setting [4]), the IC50 was in the range of 50 to 200 nM.
As to `CC(=O)c1c(OCCNC(C)(C)C)c(OCCC(C)c2ccc(F)cc2)c2oc(C)nc2c1C` (centres unmarked) [Example 26, 5-Acetyl-6-(2-(N-tertbutylamino)ethoxy)-7-[3-(4-fluorophenyl)butoxy]-2,4-dimethyl-benzo[d]oxazole], the IC50 in test [3] (setting [4]) is 200 to 1000 nM.
For `CC(=O)c1c(OCCN2CCSCC2)c(OCCC(C)c2ccc(F)cc2)c2oc(C)nc2c1C` (centres unmarked) [Example 13], in test [1], the “Selectivity for Kv1.3 over Kv1.1” value was determined as 15 fold. For the same compound, in test [2], the “Selectivity for Kv1.3 over Kv1.5” value came out at 11 fold. The IC50 in test [3] (setting [4]) and in test [3] (setting [5]) was < 50 nM each time.
Take `CC(=O)c1c(OCCN2CCC(=O)CC2)c(OCCC(C)c2ccc(F)cc2)c2oc(C)nc2c1C` (centres unmarked) [Example 12, 1-(2-{5-Acetyl-7-[3-(4-fluorophenyl)butoxy]-2,4-dimethyl-benzooxazol-6-yloxy}-ethyl)-piperidin-4-one]: in test [3] (setting [4]), the IC50 is 50 to 200 nM.
